Three compounds from article PMC11996864, “A small-molecule inhibitor of BCL10-MALT1 interaction abrogates progression of diffuse large B cell lymphoma” (The Journal of Clinical Investigation, 2025) can be followed below.

Molecules are shown by their SMILES. Where “and” joins values, the source holds several entries; their conditions need not be identical. Identical values can stand only once. Entries after “also recorded” stand apart in the source; their conditions may differ.

Assay [1] relates to TMD8 cells. Briefly: cells. More on the design: species or system TMD8 or OCI-Ly3; Inhibition of spontaneous IL-10 secretion from ABC-DLBCL cells, human IL-10 ELISA of supernatants. The settings on record: Homo sapiens, TMD8, 20 h; IL-10 secretion; read-out: IC50 (µM) IL-10 inhibition. Here is the method: Cytokine ELISAs. Cytokines in cell culture supernatants were measured 20-24h after treatment with 0, 0.01, 0.03, 0.1, 0.3, 1, or 3 µM of compounds using the following ELISA kits according to the manufacturer’s instructions: Human IL-2 ELISA (BioLegend Cat# 431804), Human IL-6 ELISA (BioLegend Cat# 430504), and Human IL-10 ELISA (BioLegend Cat# 430604). TMD8 and OCI-Ly3 cells were treated with specific doses of compounds in serum-free media for 20 hours. Jurkat T cells were pretreated with specific doses of compounds for 8 hours in serum-free media, then stimulated with PMA/ionomycin for 16 hours prior to the collection of supernatants. Mouse splenocytes were isolated from spleens of C57/BL6 mice by passing spleens through a 70 micron filter followed by red blood cell lysis using ACK lysing buffer (Quality Biologics, Cat# 118-156-101). […] Supernatant was collected at 24 hours and mouse IL-2 levels were analyzed via ELISA (R&D Systems, Cat# DY402-05). IL-6 and IL-10 are NF-κB–induced cytokines that promote the proliferation and survival of malignant B cells through both autocrine and paracrine mechanisms ([44]), and are negative prognostic factors in ABC-DLBCL ([45], [46]). ABC-DLBCL cell lines spontaneously secrete substantial levels of IL-6 and IL-10, whereas GCB-DLBCL cell lines express only a negligible amount of these cytokines ([24]). […] The IC50 for inhibition of cytokine secretion by each compound in each cell line is reported in Supplemental Table 1.  Figure 4 M1i-124 and M1i-124d1 inhibit MALT1 protease and scaffolding functions, and MALT1-dependent cytokine secretion, in ABC-DLBCL cells. (A and B) Effect of 1 μM compound pretreatment on constitutive RelB cleavage (A) and IκB phosphorylation (B) within TMD8 cells. Representative Western blots are shown along with quantification (mean ± SEM; n = 2). (C) IL6 and IL10 mRNA levels in TMD8 cells treated with 1 μM M1i-124 or M1i-124d1 (mean ± SEM; n = 6). […] Statistical analyses were performed using 1-way ANOVA and Dunnett’s multiple-comparison test. **P < 0.01, ***P < 0.001, ****P < 0.0001.

Assay [2] concerns IL-2 secretion from Jurkat T cells. Kind of assay: Secreted IL-2 ELISA after PMA/Iono. The assay is classed as cell-based, human. The settings on record: PMA/Iono treated, Suppl Fig. 4A.
The next assay deals with T1, full-length MALT1 (Homo sapiens, UniProt Q9UDY8).
T1 construct: full-length GST-tagged MALT1 (Novus, catalog H00010892-P01) protein; purchased Novus H00010892-P01
T1 sequence (Q9UDY8 1-813 isoform Q9UDY8-2): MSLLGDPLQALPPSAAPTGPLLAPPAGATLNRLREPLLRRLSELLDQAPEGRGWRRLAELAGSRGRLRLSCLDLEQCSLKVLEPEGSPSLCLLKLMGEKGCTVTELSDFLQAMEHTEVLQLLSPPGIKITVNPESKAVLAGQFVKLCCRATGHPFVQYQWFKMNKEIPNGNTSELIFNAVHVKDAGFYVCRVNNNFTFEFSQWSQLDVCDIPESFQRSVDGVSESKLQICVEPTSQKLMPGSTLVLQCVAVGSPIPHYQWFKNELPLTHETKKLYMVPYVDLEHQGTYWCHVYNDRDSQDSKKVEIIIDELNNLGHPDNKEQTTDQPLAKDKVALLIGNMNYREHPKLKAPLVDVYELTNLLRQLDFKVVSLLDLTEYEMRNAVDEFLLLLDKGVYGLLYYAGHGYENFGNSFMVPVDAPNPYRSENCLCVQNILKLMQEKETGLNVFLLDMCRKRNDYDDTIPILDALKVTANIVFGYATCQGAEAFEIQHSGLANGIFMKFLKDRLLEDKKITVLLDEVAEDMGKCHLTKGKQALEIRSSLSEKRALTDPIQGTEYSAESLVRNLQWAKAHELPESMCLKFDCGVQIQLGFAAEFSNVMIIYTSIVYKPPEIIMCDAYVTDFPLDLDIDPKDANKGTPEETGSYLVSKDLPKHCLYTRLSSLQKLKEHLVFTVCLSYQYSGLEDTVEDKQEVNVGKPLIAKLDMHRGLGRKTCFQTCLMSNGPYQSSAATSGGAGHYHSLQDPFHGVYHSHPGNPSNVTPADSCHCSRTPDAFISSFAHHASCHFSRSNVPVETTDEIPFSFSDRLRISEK
Kind of assay: SPR binding of M1i-124 to immobilized full-length MALT1. The settings on record: steady-state affinity model; read-out: equilibrium dissociation constant (KD). The method, then:
Surface plasmon resonance (SPR) experiments were performed on a Biacore 2000 system (Cytiva). Full-length GST-BCL10 (Abnova, catalog H00008915-P01) was immobilized onto a gold sensor chip surface, and analyte solution containing MALT1(DD+Ig1-2), MALT1(DD), or MALT1(Ig1-2) purified protein was injected over the surface through a series of flow cells (see Supplemental Methods for details on protein purification). The binding kinetic parameters were obtained using the Langmuir model for global fitting with 1:1 binding ratio where one ligand molecule interacts with one analyte molecule. The equilibrium dissociation constant (KD) of M1i-124 to full-length GST-tagged MALT1 (Novus, catalog H00010892-P01) protein was determined by Creative Biolabs using Biacore T200. Full-length MALT1 protein was immobilized onto CM5 sensor chip surface, and M1i-124 was injected at concentrations of 0, 12.5, 25, 50, 100, and 200 μM. The steady-state affinity model was used to determine the KD.
In general terms: In SPR one partner is held on a chip, and binding of the other changes the refractive index at the surface.

In assay [3] the test system is TMD8 cells. Briefly: Apoptosis, annexin V/SYTOX Blue flow cytometry. The assay is classed as cell-based, human. Here is the method:
(§1) Cell proliferation, viability, and apoptosis assays. […]
The percentages of cells in early and late apoptosis were combined for
quantification. For CellTrace Violet, CellTiter-glo, and Annexin V apoptosis assays, cell were
cultured in media with 50% of the usual serum. […]
On the technique in general: A flow cytometer gives signals particle by particle.

Assay [4] deals with OCI-Ly3 cells. Briefly: Apoptosis, annexin V/SYTOX Blue flow cytometry. The class given is cell-based, human. Here is the method: as §1
Annexin V Alexa 488
(ThermoFisher Scientific, Cat# A13201) and SYTOX Blue Dead Cell (ThermoFisher Scientific, Cat# S34857) stains were used to detect apoptosis in DLBCL cells after treatment with 1 µM compounds for 8 days in TMD8 and OCI-Ly1 and for 5 days in OCI-Ly3 cells, then analyzed with flow cytometry. The percentages of cells in early and late apoptosis were combined for quantification. For CellTrace Violet, CellTiter-glo, and Annexin V apoptosis assays, cell were cultured in media with 50% of the usual serum. […]

Assay [5] concerns OCI-Ly3 cells. Briefly: CellTiter-Glo ATP viability. The assay is classed as cell-based, human. The method, then: as §1
Fluorescent Intensity (MFI) was analyzed by FlowJo (version 10.8.0, BD). CellTiter-glo luminescence assay (Promega, Cat# G7570) was used to quantify ATP levels as a surrogate marker of metabolic viability in DLBCL cells treated with compounds for 6-8 days. […]
The percentages of cells in early and late apoptosis were combined for quantification. For CellTrace Violet, CellTiter-glo, and Annexin V apoptosis assays, cell were cultured in media with 50% of the usual serum. […]

On to `COc1ccc(CNS(=O)(=O)c2ccc(Cc3ccc(S(=O)(=O)NCc4ccc(OC)cc4)cc3)cc2)cc1` [M1i-124d1], for which the IC50 in the assay with TMD8 cells [1] was determined as 0.2 µM.

As for `CN1CCCC(CN2c3ccccc3Sc3ccccc32)C1` (stereo not shown) [Mepazine, mepazine, reference compound], the activity at 5 µM in assay [2] (Homo sapiens, Jurkat, read-out: IL-2 protein level (% of control)) came to 29.9%. Besides, the “IL-2 protein level (% of control)” value in assay [2] (5 uM) is 22.8269 % of control and 31.0927 % of control.

In the case of `O=S(=O)(NCc1ccc2c(c1)OCO2)c1ccc(Cc2ccc(S(=O)(=O)NCc3ccc4c(c3)OCO4)cc2)cc1` [M1i-124], the dissociation constant (Kd) on full-length MALT1 stood at 296000 nM. Besides, the “% Apoptotic cells” value in the assay with TMD8 cells [3] (TMD8, 1 μM, 6 days) is 84.2% and 72.1% and 76.6% and 77.4% and 72.4% and 73.5%. Moreover, the “Annexin (% positivity)” value in the assay with TMD8 cells [3] (TMD8, individual replicates) is 78.2% and 93.8% and 81.35%. Further, the “apoptosis of TMD8 cells” value in the assay with TMD8 cells [3] (result in words) was “induced significant apoptosis; also recorded: selectively induced apoptosis”. Further, the “apoptosis of OCI-Ly3 cells” value in the assay with OCI-Ly3 cells [4] (1 μM, result in words) is “selectively induced apoptosis”. For the same compound, the “Percent Apoptotic cells” value in the assay on OCI-Ly3 cells [4] (OCI-Ly3) was 91.3% and 82.7% and 75% and 93.6% and 88.1% and 93.3% and 87.8% and 75.8%. Moreover, the IC50 in the assay on OCI-Ly3 cells [5] (Homo sapiens, OCI-Ly3 cells, read-out: 50% cytotoxic concentration) is ~500 nM. Also, the “Percent viability (ATP level)” value with OCI-Ly3 cells [5] (OCI-Ly3, M1i-124 (µM) 0.02) was 93.0259% and 81.697% and 95.3842% and 87.3232%; in the assay with OCI-Ly3 cells [5] (OCI-Ly3, M1i-124 (µM) 0.05), 107.435% and 78.839% and 101.939% and 104.596%; with OCI-Ly3 cells [5] (OCI-Ly3, M1i-124 (µM) 0.1), 97.8481% and 79.4097% and 92.5817% and 82.7797%; in the assay with OCI-Ly3 cells [5] (OCI-Ly3, M1i-124 (µM) 0.2), 93.5879% and 72.4634% and 88.6927% and 76.6947%; in the assay with OCI-Ly3 cells [5] (OCI-Ly3, M1i-124 (µM) 5), 38.3426% and 24.1881% and 19.3497% and 28.4648%. The “viability of OCI-Ly3 cells” value with OCI-Ly3 cells [5] (result in words) was “dose-dependent decrease in viability”.

As a reminder, the Kd is a measure of binding affinity in units of concentration.
